According to patent US20230390297A1, “USE OF NUCLEOTIDE SYNTHESIS INHIBITORS FOR TARGETED THERAPY IN MLL3/4 COMPASS MUTANT CANCER” (priority 2022, published 2023):

What was measured:
WT and Mll3/4 KO mESCs = assay: RNA-seq of WT and Mll3/4 KO mESCs treated with LTX -/+ HPX; type: cell-based, mouse; details: 0.3 μM LTX or 50 μM HPX alone, 48 hours; LTX effect almost completely rescued by HPX
Description: (§1) FIG. 3. […] (A) WT and Mll3/4 KO cells were treated with 0-2.5 μM lometrexol (LTX)−/+50 hypoxanthine (HPX) for 48 hours. CellTiter-Glo® luminescent cell viability assay was performed to determine the percentage of inhibition under these conditions. (B) WT and KO cells were treated with 0.3 μM LTX−/+50 μM HPX for 48 hours, and cells were harvested for RNA-seq. Differential gene expression analyses were performed with indicated comparisons. (C) Principal component analysis of RNA-seq in (B). (D) Hierarchical clustering heatmap showing differentially expressed genes in KO cells in comparison with WT cells.
(§2) FIG. 10. Mll3/4 KO mESCs are more sensitive to purine synthesis inhibition. (A-B) WT and Mll3/4 KO cells were treated with 0-2.5 μM lometrexol (LTX) (A) or 0-5 methotrexate (MTX) (B) for 48 hours. CellTiter-Glo® luminescent cell viability assay was performed to determine the percentage of inhibition under these conditions with three different Mll3/4 KO clones included. (C) WT and Mll3/4 KO cells were treated with 0-40 μM SHIINI for 48 hours. MTT cell viability assay was performed to determine the percentage of inhibition under these conditions with three different Mll3/4 KO clones included.
Gene count tables were constructed using HTseq (56) with Ensembl gene annotations and used as input for edgeR 3.0.8 (57). Genes with Benjamini-Hochburg adjusted p-values less than were differentially expressed. Batch effects were removed using ComB at-seq on the raw read counts (58). Pathway analysis was performed with Metascape (59).

[1] = system: MLL4 mutant colorectal cancer cells (SW480, DLD1, HCT116, RKO); assay: CellTiter-Glo viability assay in MLL4 wild type and MLL4 mutant colorectal cell lines; type: cell-based, human; details: 72 hours; LTX 0-30 μM, Piericidin A 0-10 μM, Phenformin 0-30 mM
Mll3/4 KO mESCs [2] = assay: MTT cell viability assay in WT and Mll3/4 KO mESCs; type: cell-based, mouse; details: 0-40 μM, 48 hours; three Mll3/4 KO clones
Description: as §2

Mll3/4 KO mESCs [3] = assay: CellTiter-Glo luminescent cell viability assay in WT and Mll3/4 KO mESCs; type: cell-based, mouse; details: 48 hours; LTX 0-2.5 μM, MTX 0-5; three Mll3/4 KO clones
Description: as §1, §2

[4] = system: CAL51 breast cancer cells; assay: CellTiter-Glo viability assay in CAL51 MLL4 WT, hNTD and KO cells; type: cell-based, human
Description: FIG. 17. Cells lacking of MLL4 function are selectively sensitive to de novo purine synthesis inhibition. (A) Tracer levels of glutamine (M+1) in SW1417, Caco2, RKO and HCT116 cells. (B) Labeled purine metabolite levels with 15 N glutamine tracing in SW1417, Caco2, RKO and HCT116 cells. MLL4 WT cells, blue; MLL4 mutant cells, red. (C) CellTiter-Glo® luminescent cell viability assay in CAL51 MLL4 WT, heterozygous truncation mutation (hNTD), and KO cells treated with MTX (0-1 μM). (D) CAL51 WT and MLL4KO cells were treated with 0.04, or 0.4 μM MTX in the presence of H2O, 50 μM thymidine or 50 μM inosine. CellTiter-Glo® luminescent cell viability assay was performed. (E-J) Cells were infected with lentiviruses expressing shCtrl, shGART or shPAICS. Two distinct shRNAs were included for GART and PAICS. Western blot showing the knockdown of GART and PAICS in RKO, HCT116, Caco2 and HT55 cells (E). The growth rates of HCT116 (F), RKO (G), Caco2 (H) and HT55 (I) cells with shCtrl, shGART or shPAICS were measured by cell counting, and the cell number was normalized with day 0. Colony formation of the four cell lines with GART or PAICS knockdown was performed by seeding 500 or 1000 cells in the 6 well plates and stained after 10-14 days of culture with media change every three days (J).

For `O=c1[nH]cnc2nc[nH]c12` [HPX, hypoxanthine], the “gene expression change in WT and Mll3/4 KO cells” value (WT and Mll3/4 KO mESCs) was “subtle gene expression or phenotypic change”.

With `[H]/N=C(/N)N/C(=N/[H])NCCc1ccccc1` [Phenformin] the “sensitivity of MLL4 mutant cells compared with MLL4 wild type cells (growth inhibition)” value [1] was “no sensitivity difference between MLL4 WT and mutant cells”.

With `C/C=C(\C)[C@H](O)[C@H](C)/C=C(C)/C=C/C/C(C)=C/Cc1nc(OC)c(OC)c(O)c1C` [Piericidin A] the “sensitivity of MLL4 mutant cells compared with MLL4 wild type cells (growth inhibition)” value [1] was “no sensitivity difference between MLL4 WT and mutant cells”.

With `Cc1[nH]nc2c1C(c1cc(CO)cc(-c3ccccc3)c1)(C(C)C)C(C#N)=C(N)O2` (stereo not shown) [SHIN1] the “sensitivity of Mll3/4 KO cells compared with WT cells (percentage of inhibition, MTT)” value (Mll3/4 KO mESCs [2]) was “enhanced sensitivity”.

For `CN(Cc1cnc2nc(N)nc(N)c2n1)c1ccc(C(=O)N[C@@H](CCC(=O)O)C(=O)O)cc1` [methotrexate, (2S)-2-[[4-[(2,4-diaminopteridin-6-yl)methyl-methylamino]benzoyl]amino]pentanedioic acid], the “sensitivity of Mll3/4 KO cells compared with WT cells (percentage of inhibition of viability)” value (Mll3/4 KO mESCs [3]) was “enhanced sensitivity”, the “rescue of cytotoxic effect on MLL4KO cells by nucleosides” value ([4]; 0.04 or 0.4 μM MTX with 50 μM thymidine or 50 μM inosine) was “rescued by inosine not thymidine” and the “sensitivity of CAL51 cells with compromised MLL4 functions (MLL4hNTD, MLL4KO) compared with WT” value ([4]; MTX 0-1 μM) was “elevated MTX sensitivity”.
